Test results from PMC9692619, “Insights into the 3D In Vitro Permeability and In Vivo Antioxidant Protective Effects of Kiwiberry Leaf Extract: A Step Forward to Human Nutraceutical Use” (International Journal of Molecular Sciences, 2022).
“And” between values parts separate entries of the source, which are not always exact repeats. Identical values can stand only once. Marks after values point to notes of the source that are not given here.

Key:
[1] = test system: co-culture model with Caco-2 and HT29-MTX; assay: 3D intestinal permeability assay (co-culture, HPLC-MS of basolateral samples); assay type: in vitro ADME; conditions: for Permeability (%): 3D intestinal model, compound of kiwiberry leaf extract; for permeation in the 3D intestinal model: time not stated; for permeation (detection after the 3D intestinal permeation assay): aglycones, result in words
Method: The intestinal permeability was carried out in a co-culture model with Caco-2 and HT29-MTX [40]. The extract was added to the apical side of the model. A sample from the basolateral side was collected at different timepoints (0, 15, 30, 45, 60, 90, 120, 150, 180, and 240 min). Samples were analyzed by HPLC-MS assay (Section 3.5). The TEER of the model was evaluated before, during and at the end of the permeability assay using an EVOM Epithelial Volthometer Instrument equipped with a chopstick electrode (World Precision Instruments, Sarasota, FL, USA).
The phenolic compounds that permeated the intestinal 3D model were identified and quantified according to Silva et al.. The samples were diluted 10 times with methanol-water (50:50) and centrifuged at 13,300× […] for 15 min. The supernatant was then transferred to a vial for the LC-MS analysis. The standard calibration curves were: • Chlorogenic acid titration curve: y = 198.01x + 20.138 (R^2 = 1) • Rutin titration curve: y = 58.564x + 41.752 (R^2 = 0.9998)
Regarding the multiple reaction monitoring (MRM), the values were: • Chlorogenic acid: 353.5 > 191.2 • Rutin: 609.4 > 301.3 • Coumaroyl quinic acid: 337.3 > 191.3

[2] = Serum biochemical analysis (TC, HDL-C, LDL-C, TG) after 7 days oral treatment; assay type: in vivo, Wistar rats; conditions: 50 mg/kg bw oral once daily 7 days
Method: (§1) The homogenate supernatants were analyzed by biochemical assays.
Serum was used to analyze the TC, HDL-C, and LDL-C using commercial kits from Sigma-Aldrich (Steinheim, Germany). TG levels were estimated in the blood serum through a commercial kit from Abcam (Cambridge, MA, USA).

SOD = assay: In vivo antioxidant parameter: SOD activity in kidney, liver, serum; design: species or system Wistar rats; conditions: 50 mg/kg bw oral once daily 7 days
Method: as §1
(§2) The antioxidant enzyme activities, namely SOD, CAT, and GSH-Px, were evaluated in the homogenate supernatants from organs through commercial enzymatic kits from Sigma-Aldrich (Steinheim, Germany). The lipid peroxidation was determined through the determination of MDA levels using a commercial kit (Merck, Darmstadt, Germany).

MDA = assay: Lipid peroxidation: MDA levels in kidney, liver, serum; assay type: in vivo, Wistar rats; conditions: 50 mg/kg bw oral once daily 7 days
Method: as §1, §2

GSH-Px = assay: In vivo antioxidant parameter: GSH-Px activity in kidney, liver, serum; design: species or system Wistar rats; conditions: 50 mg/kg bw oral once daily 7 days
Method: as §1, §2

kidney and liver tissues = assay: Histopathological analysis of kidney and liver (hematoxylin-eosin); conditions: oral gavage once daily 7 days; extract 50 and 75 mg/kg bw, vitamin C 50 mg/kg bw
Method: Young male Wistar rats of 5–6 weeks of age (140–207 g) were acquired from the Jackson Laboratory (Bar Harbor, ME, USA) and acclimatized in polypropylene cages to the environmental conditions (12 h dark/light cycle, controlled temperature (21 ± 2 °C), relative humidity (55 ± 10%) and fed ad libitum with standard pellet diet and water for 1 week before the experiment).
All groups were treated once daily for 7 days by oral gavage after a fasting period of 4 h. The body weight of each animal was recorded twice a week during the experimental period. Blood samples were collected from tail vein and a glucometer (Accu-Chek, Roche® Diabetes Care, Inc., Mississauga, QC, Canada) was used to measure the glucose levels.
After 7 days, the animals were sacrificed by pentobarbital overdose (50 mg/kg bw). The organs (liver and kidneys) were removed, and the blood was collected by cardiac puncture. Serum was separated by centrifugation (20,000× g, 15 min, 4 °C) and stored at −80 °C for biochemical analyses [42]. The organs were dissected from each animal and subsequently mixed with 50 mM potassium phosphate, pH 7.0, and centrifuged (20,000× g, 15 min, 4 °C), according to the kit manufacturer’s instructions. The homogenate supernatants were analyzed by biochemical assays.
The tissue samples (liver and kidney) were preserved in 10% formalin. […]

CAT = assay: In vivo antioxidant parameter: CAT activity in kidney, liver, serum; design: species or system Wistar rats; conditions: 50 mg/kg bw oral once daily 7 days
Method: as §1, §2

Row | SMILES | Permeability (%) ([1]; 15 min) | Permeability (%) ([1]; 30 min) | Permeability (%) ([1]; 45 min) | Permeability (%) ([1]; 60 min) | Permeability (%) ([1]; 90 min) | Permeability (%) ([1]; 120 min) | Permeability (%) ([1]; 180 min) | Permeability (%) ([1]; 240 min) | permeation in the 3D intestinal model [1] | permeation (detection after the 3D intestinal permeation assay) [1] | further results
1 | O=C(/C=C/c1ccc(O)c(O)c1)O[C@@H]1C[C@](O)(C(=O)O)C[C@@H](O)[C@H]1O [Chlorogenic acid] | <LOD | 1.79 ± 0.09% | <LOD | <LOD | <LOD | <LOD | <LOD | 2.49% | – | – | Permeability (%) ([1]; 240 min, listed as Chlorogenic Acid): 2.49 ± 0.13%
2 | O=C(/C=C/c1ccc(O)cc1)O[C@@H]1C[C@](O)(C(=O)O)C[C@@H](O)[C@H]1O [Coumaroyl quinic acid] | 1.04 ± 0.05% | 18.81 ± 0.94% | 7.99 ± 0.39% | 13.50 ± 0.68% | 19.74 ± 0.99% | 14.60 ± 0.73% | 24.32 ± 1.22% | 34.23% | higher than 25% | – | Permeability (%) ([1]; 240 min, listed as Coumaroyl Quinic Acid): 34.23 ± 1.71%
3 | C[C@@H]1O[C@@H](OC[C@H]2O[C@@H](Oc3c(-c4ccc(O)c(O)c4)oc4cc(O)cc(O)c4c3=O)[C@H](O)[C@@H](O)[C@@H]2O)[C@H](O)[C@H](O)[C@H]1O [Rutin] | 6.67 ± 0.33% | 10.89 ± 0.54% | 17.01 ± 0.85% | 14.61 ± 0.73% | 14.56 ± 0.73% | 18.50 ± 0.93% | 18.30 ± 0.92% | 25.40 ± 1.27% | higher than 25% | – | Permeability (%) ([1]; 15 min, listed as rutin): 6.67%; Permeability (%) ([1]; 240 min, listed as rutin): 25.40%
4 | O=c1c(O)c(-c2ccc(O)cc2)oc2cc(O)cc(O)c12 [kaempferol] | – | – | – | – | – | – | – | – | – | absence of permeation | –
5 | O=c1c(O)c(-c2ccc(O)c(O)c2)oc2cc(O)cc(O)c12 [quercetin] | – | – | – | – | – | – | – | – | – | absence of permeation | –
6 | O=C1O[C@H]([C@@H](O)CO)C(O)=C1O [vitamin C] | – | – | – | – | – | – | – | – | – | – | HDL-C [2]: 155.09 ± 37.71 mg/dL; LDL-C [2]: 76.24 ± 16.52 mg/dL; TG [2]: 229.76 ± 33.54 ^a mg/dL; TC ([2]; 50 mg/kg): 79.81 mg/dL and 79.81 ± 15.11 mg/dL; SOD, Kidneys (SOD): 123.13 ± 19.27 ^b,c units/g protein; SOD, Liver (SOD): 83.71 ± 6.06 ^b units/g protein; SOD, Serum (SOD): 79.20 ± 5.76 ^b units/mL protein; MDA, Kidneys (MDA): 196,748 ± 31,125 ^a nmol/g protein; MDA, Liver (MDA): 145,827 ± 10,063 ^b nmol/g protein; MDA, Serum (MDA): 746.79 ± 123.55 ^b nmol/mL protein; GSH-Px, Kidneys (GSH-Px): 136.66 ± 19.62 ^b units/g protein; GSH-Px, Liver (GSH-Px): 71.34 ± 10.94 ^b,c units/g protein; GSH-Px, Serum (GSH-Px): 20.16 ± 5.29 ^b units/mL protein; histopathological examination of kidneys (kidney and liver tissues): did not lead to morphological alterations; CAT, Kidneys (CAT): 427,496 ± 78,015 ^b nmol/min/g protein; CAT, Liver (CAT): 3,762,450 ± 434,242 ^c nmol/min/g protein; CAT, Serum (CAT): 34,911 ± 7975 ^b nmol/min/mL protein
